According to ChEMBL document CHEMBL2073803, “Role of MDR1 and MRP1 in trophoblast cells, elucidated using retroviral gene transfer” (Am J Physiol Cell Physiol, 2003):

Target: ATP-dependent translocase ABCB1 (Homo sapiens, UniProt P08183)
Test: TP_TRANSPORTER: efflux in MDR1-expressing BeWo cells
Format: functional, cell-based

Chain of ATP-dependent translocase ABCB1 (P08183 whole entry): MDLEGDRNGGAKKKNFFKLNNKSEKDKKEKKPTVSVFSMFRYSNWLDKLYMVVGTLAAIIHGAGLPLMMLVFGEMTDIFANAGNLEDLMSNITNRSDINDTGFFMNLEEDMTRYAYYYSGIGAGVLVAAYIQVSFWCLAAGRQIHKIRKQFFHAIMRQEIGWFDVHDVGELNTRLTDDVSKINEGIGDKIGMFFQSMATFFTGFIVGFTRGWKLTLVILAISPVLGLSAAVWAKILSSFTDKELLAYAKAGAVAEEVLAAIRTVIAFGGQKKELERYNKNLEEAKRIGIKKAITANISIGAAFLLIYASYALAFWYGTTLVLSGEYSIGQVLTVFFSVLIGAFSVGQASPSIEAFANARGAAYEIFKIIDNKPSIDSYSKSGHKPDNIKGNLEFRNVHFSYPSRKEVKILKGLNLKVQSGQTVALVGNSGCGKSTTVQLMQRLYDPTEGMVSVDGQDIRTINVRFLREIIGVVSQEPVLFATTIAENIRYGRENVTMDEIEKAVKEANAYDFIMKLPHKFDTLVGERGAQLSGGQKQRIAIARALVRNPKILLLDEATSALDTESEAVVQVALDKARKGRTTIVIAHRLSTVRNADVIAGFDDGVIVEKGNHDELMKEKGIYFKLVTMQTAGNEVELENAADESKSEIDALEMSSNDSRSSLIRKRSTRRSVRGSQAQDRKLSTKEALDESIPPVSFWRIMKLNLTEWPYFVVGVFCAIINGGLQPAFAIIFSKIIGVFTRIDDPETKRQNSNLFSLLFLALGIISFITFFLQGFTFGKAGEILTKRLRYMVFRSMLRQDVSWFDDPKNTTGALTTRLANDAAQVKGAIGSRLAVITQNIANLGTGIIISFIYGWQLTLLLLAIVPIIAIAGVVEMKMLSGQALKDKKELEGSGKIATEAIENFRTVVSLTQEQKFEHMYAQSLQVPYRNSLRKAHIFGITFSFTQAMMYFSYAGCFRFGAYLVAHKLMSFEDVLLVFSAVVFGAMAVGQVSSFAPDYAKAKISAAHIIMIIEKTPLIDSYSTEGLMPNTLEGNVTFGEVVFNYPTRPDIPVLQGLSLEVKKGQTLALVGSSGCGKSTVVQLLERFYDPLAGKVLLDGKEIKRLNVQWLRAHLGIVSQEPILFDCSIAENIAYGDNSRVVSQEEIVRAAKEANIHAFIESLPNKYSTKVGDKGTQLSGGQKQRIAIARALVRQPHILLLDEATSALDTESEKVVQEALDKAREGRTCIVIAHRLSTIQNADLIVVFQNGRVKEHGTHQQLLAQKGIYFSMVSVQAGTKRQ

Activity: substrate [+]
SMILES: CC[C@]1(O)C[C@@H]2CN(CCc3c([nH]c4ccccc34)[C@@](C(=O)OC)(c3cc4c(cc3OC)N(C)[C@H]3[C@@](O)(C(=O)OC)[C@H](OC(C)=O)[C@]5(CC)C=CCN6CC[C@]43[C@@H]65)C2)C1 [VINBLASTINE]
